Experimental data as given in paper PMC8185074, “Anchor extension: a structure-guided approach to design cyclic peptides targeting enzyme active sites” (Nature Communications, 2021).
Peptide text beside a SMILES is read from it.

Columns and labels:
Assay type in all cases: biochemical
HDAC1 = molecular target: T1, HDAC1 (Homo sapiens, UniProt Q13547); assay: HDAC1 inhibition, full IC50 measurement (Reaction Biology; fluorogenic p53 peptide RHKK(Ac)AMC); conditions: t1/t2 replicates
T1 construct: purchased Reaction Biology Corporation (assay run by the CRO)
T1 sequence (Q13547 whole entry): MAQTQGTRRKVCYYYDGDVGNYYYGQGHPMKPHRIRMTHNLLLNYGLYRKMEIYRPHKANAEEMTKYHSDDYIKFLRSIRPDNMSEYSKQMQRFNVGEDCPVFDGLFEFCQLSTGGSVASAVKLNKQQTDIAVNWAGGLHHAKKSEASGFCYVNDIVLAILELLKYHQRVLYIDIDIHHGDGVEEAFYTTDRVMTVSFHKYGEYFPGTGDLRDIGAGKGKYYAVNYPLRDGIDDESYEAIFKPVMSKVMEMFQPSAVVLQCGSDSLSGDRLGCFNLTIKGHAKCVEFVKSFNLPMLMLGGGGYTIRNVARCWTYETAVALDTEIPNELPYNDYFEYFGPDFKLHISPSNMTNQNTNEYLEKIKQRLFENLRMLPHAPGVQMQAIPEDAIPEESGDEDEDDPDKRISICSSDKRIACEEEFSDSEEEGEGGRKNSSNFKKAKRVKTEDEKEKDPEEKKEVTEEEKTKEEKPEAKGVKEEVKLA
Experimental: (§1) The assay was performed using 50 μM fluorogenic peptide from p53 residues 379-382 [RHKK(Ac)AMC] in a base reaction buffer of 50 mM Tris-HCl at pH 8.0, 137 mM NaCl, 2.7 mM KCl, 1 mM MgCl2, and freshly added 1 mg/ml BSA and 1% DMSO. Peptides were first dissolved in DMSO and then added to the reaction mixture with the enzyme using acoustic technique, enough to reach the desired concentration for that assay point. Peptide concentrations were calculated based on mass of lyophilized peptide and its molecular weight. The substrate was then added and incubated for 1 hour at 30 °C in a sealed container. After the incubation, developer was added to stop the reaction and develop color. Kinetic measurements were then performed for 20 min with Envision with 5 min intervals (Ex/Em = 360/460 nm). The endpoint after plateau was taken for IC50 measurement.
(§2) In cases where duplicate measures are used, average data is reported in the main text or Supplementary Tables.

HDAC6 = molecular target: T2, HDAC6 (Homo sapiens, UniProt Q9UBN7); assay: HDAC6 inhibition, full IC50 measurement (Reaction Biology; fluorogenic p53 peptide RHKK(Ac)AMC)
T2 construct: purchased Reaction Biology Corporation (assay run by the CRO)
T2 sequence (Q9UBN7 1-1215): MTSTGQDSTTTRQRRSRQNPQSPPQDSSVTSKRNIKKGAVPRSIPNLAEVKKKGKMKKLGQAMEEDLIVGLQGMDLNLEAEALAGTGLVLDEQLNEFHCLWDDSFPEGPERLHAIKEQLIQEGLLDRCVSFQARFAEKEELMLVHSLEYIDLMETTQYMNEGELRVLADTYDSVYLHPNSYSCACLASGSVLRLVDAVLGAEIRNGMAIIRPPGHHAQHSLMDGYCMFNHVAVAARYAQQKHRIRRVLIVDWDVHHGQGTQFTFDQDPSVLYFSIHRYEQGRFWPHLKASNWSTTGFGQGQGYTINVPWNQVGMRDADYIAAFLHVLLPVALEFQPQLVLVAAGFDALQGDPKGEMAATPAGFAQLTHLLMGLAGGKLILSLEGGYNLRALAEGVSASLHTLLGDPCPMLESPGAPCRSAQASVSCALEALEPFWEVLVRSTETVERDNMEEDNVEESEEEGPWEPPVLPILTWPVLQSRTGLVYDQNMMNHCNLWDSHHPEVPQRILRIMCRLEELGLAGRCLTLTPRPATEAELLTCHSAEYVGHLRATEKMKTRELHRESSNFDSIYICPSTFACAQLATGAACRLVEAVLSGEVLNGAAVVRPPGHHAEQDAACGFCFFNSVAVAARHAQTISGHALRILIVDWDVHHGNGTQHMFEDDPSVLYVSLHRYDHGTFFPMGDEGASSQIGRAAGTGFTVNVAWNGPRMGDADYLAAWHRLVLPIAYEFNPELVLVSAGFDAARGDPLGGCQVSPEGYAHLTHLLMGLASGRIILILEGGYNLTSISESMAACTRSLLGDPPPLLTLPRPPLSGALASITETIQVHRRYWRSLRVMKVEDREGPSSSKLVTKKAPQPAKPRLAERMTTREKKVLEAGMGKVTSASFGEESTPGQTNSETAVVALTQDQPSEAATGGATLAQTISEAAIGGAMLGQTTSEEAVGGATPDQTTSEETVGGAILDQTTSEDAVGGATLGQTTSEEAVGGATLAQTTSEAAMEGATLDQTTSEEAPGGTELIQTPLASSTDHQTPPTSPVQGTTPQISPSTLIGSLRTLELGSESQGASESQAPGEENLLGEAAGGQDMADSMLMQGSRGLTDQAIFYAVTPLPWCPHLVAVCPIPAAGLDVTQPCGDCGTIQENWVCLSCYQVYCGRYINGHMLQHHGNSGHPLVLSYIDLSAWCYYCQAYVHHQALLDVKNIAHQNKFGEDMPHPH
Summary of the method: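 Reaction: enzyme plus acoustically dispensed peptide inhibitor, 50 μM RHKK(Ac)AMC substrate, pH 8.0 Tris buffer with BSA and 1% DMSO, 1 h, 30 °C. Duplicates averaged.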

HDAC8 = molecular target: T3, HDAC8 (Homo sapiens, UniProt Q9BY41); assay: HDAC8 inhibition, full IC50 measurement (Reaction Biology; fluorogenic p53 peptide RHKK(Ac)AMC); conditions: t1/t2 replicates
T3 construct: purchased Reaction Biology Corporation (assay run by the CRO)
T3 sequence (Q9BY41 1-377): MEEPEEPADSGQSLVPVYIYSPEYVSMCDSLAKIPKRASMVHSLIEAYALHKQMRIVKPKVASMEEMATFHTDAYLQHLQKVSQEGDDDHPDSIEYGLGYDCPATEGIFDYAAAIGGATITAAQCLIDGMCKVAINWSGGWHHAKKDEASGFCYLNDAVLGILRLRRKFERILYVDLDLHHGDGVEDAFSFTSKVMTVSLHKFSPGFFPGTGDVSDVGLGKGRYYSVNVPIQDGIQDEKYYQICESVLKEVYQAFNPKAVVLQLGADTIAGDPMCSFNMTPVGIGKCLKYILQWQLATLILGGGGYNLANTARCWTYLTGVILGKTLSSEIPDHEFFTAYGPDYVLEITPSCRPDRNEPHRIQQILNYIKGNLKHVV
Experimental: as §1, §2

[1] = peptide conc. 1.00E-05 M, listed as des2.1.0_t1
[2] = peptide conc. 1.00E-05 M, listed as des2.1.0_t2
[3] = peptide conc. 1.11E-06 M, listed as des2.1.0_t1
[4] = peptide conc. 1.11E-06 M, listed as des2.1.0_t2
[5] = peptide conc. 1.23E-07 M, listed as des2.1.0_t1
[6] = peptide conc. 1.23E-07 M, listed as des2.1.0_t2
[7] = peptide conc. 1.37E-08 M, listed as des2.1.0_t1
[8] = peptide conc. 1.37E-08 M, listed as des2.1.0_t2
[9] = peptide conc. 1.52E-09 M, listed as des2.1.0_t1
[10] = peptide conc. 1.52E-09 M, listed as des2.1.0_t2
[11] = peptide conc. 3.33E-06 M, listed as des2.1.0_t1
[12] = peptide conc. 3.33E-06 M, listed as des2.1.0_t2
[13] = peptide conc. 3.70E-07 M, listed as des2.1.0_t1
[14] = peptide conc. 3.70E-07 M, listed as des2.1.0_t2
[15] = peptide conc. 4.12E-08 M, listed as des2.1.0_t1
[16] = peptide conc. 4.12E-08 M, listed as des2.1.0_t2
[17] = peptide conc. 4.57E-09 M, listed as des2.1.0_t1
[18] = peptide conc. 4.57E-09 M, listed as des2.1.0_t2
[19] = peptide conc. 5.08E-10 M, listed as des2.1.0_t1
[20] = peptide conc. 5.08E-10 M, listed as des2.1.0_t2

C[C@H](O)[C@H]1NC(=O)[C@H](Cc2c[nH]c3ccccc23)NC(=O)[C@H](CCCCCS)NC(=O)[C@H](CCCCN)NC(=O)[C@@H](CC(=O)O)NC(=O)[C@@H](CCCCN)NC(=O)[C@@H](CO)NC(=O)[C@H](CC(N)=O)NC(=O)[C@H](CC(=O)O)NC1=O [des2.1.0, SHA-Trp-dThr-Asp-Asn-dSer-dLys-dAsp-Lys] (HELM PEPTIDE1{D.N.[dS].[dK].[dD].K.[O=C([C@H](CCCCCS)N[*:1])[*:2]].W.[dT]}$PEPTIDE1,PEPTIDE1,1:R1-9:R2$$$V2.0)
HDAC1 activity raw data (signal) (HDAC1; [1]): 2361
HDAC1 activity raw data (signal) (HDAC1; [2]): -1067
HDAC1 activity raw data (signal) (HDAC1; [3]): 35066
HDAC1 activity raw data (signal) (HDAC1; [4]): 30452
HDAC1 activity raw data (signal) (HDAC1; [5]): 229823
HDAC1 activity raw data (signal) (HDAC1; [6]): 221730
HDAC1 activity raw data (signal) (HDAC1; [7]): 719453
HDAC1 activity raw data (signal) (HDAC1; [8]): 647364
HDAC1 activity raw data (signal) (HDAC1; [9]): 1054522
HDAC1 activity raw data (signal) (HDAC1; [10]): 936834
HDAC1 activity raw data (signal) (HDAC1; [11]): 10147
HDAC1 activity raw data (signal) (HDAC1; [12]): 8024
HDAC1 activity raw data (signal) (HDAC1; [13]): 106445
HDAC1 activity raw data (signal) (HDAC1; [14]): 96156
HDAC1 activity raw data (signal) (HDAC1; [15]): 447049
HDAC1 activity raw data (signal) (HDAC1; [16]): 424224
HDAC1 activity raw data (signal) (HDAC1; [17]): 905513
HDAC1 activity raw data (signal) (HDAC1; [18]): 862794
HDAC1 activity raw data (signal) (HDAC1; [19]): 1056262
HDAC1 activity raw data (signal) (HDAC1; [20]): 1080293
HDAC6 activity raw data (signal) (HDAC6; Conc. 1.00E-05 M, t1): 11243
HDAC6 activity raw data (signal) (HDAC6; Conc. 1.00E-05 M, t2): 1739
HDAC6 activity raw data (signal) (HDAC6; Conc. 1.11E-06 M, t1): 28172
HDAC6 activity raw data (signal) (HDAC6; Conc. 1.11E-06 M, t2): 21097
HDAC6 activity raw data (signal) (HDAC6; Conc. 1.23E-07 M, t1): 158713
HDAC6 activity raw data (signal) (HDAC6; Conc. 1.23E-07 M, t2): 131097
HDAC6 activity raw data (signal) (HDAC6; Conc. 1.37E-08 M, t1): 435775
HDAC6 activity raw data (signal) (HDAC6; Conc. 1.37E-08 M, t2): 375237
HDAC6 activity raw data (signal) (HDAC6; Conc. 1.52E-09 M, t1): 580209
HDAC6 activity raw data (signal) (HDAC6; Conc. 1.52E-09 M, t2): 526073
HDAC6 activity raw data (signal) (HDAC6; Conc. 3.33E-06 M, t1): 12962
HDAC6 activity raw data (signal) (HDAC6; Conc. 3.33E-06 M, t2): 9723
HDAC6 activity raw data (signal) (HDAC6; Conc. 3.70E-07 M, t1): 70613
HDAC6 activity raw data (signal) (HDAC6; Conc. 3.70E-07 M, t2): 63583
HDAC6 activity raw data (signal) (HDAC6; Conc. 4.12E-08 M, t1): 283586
HDAC6 activity raw data (signal) (HDAC6; Conc. 4.12E-08 M, t2): 230477
HDAC6 activity raw data (signal) (HDAC6; Conc. 4.57E-09 M, t1): 537641
HDAC6 activity raw data (signal) (HDAC6; Conc. 4.57E-09 M, t2): 486475
HDAC6 activity raw data (signal) (HDAC6; Conc. 5.08E-10 M, t1): 609077
HDAC6 activity raw data (signal) (HDAC6; Conc. 5.08E-10 M, t2): 536924
HDAC8 activity raw data (signal) (HDAC8; [1]): 3317278
HDAC8 activity raw data (signal) (HDAC8; [2]): 3225773
HDAC8 activity raw data (signal) (HDAC8; [3]): 14350924
HDAC8 activity raw data (signal) (HDAC8; [4]): 13274280
HDAC8 activity raw data (signal) (HDAC8; [5]): 29733699
HDAC8 activity raw data (signal) (HDAC8; [6]): 29791882
HDAC8 activity raw data (signal) (HDAC8; [7]): 39649362
HDAC8 activity raw data (signal) (HDAC8; [8]): 39639123
HDAC8 activity raw data (signal) (HDAC8; [9]): 48372865
HDAC8 activity raw data (signal) (HDAC8; [10]): 43623554
HDAC8 activity raw data (signal) (HDAC8; [11]): 8085277
HDAC8 activity raw data (signal) (HDAC8; [12]): 7910023
HDAC8 activity raw data (signal) (HDAC8; [13]): 24973470
HDAC8 activity raw data (signal) (HDAC8; [14]): 23110500
HDAC8 activity raw data (signal) (HDAC8; [15]): 39179752
HDAC8 activity raw data (signal) (HDAC8; [16]): 38239026
HDAC8 activity raw data (signal) (HDAC8; [17]): 45086009
HDAC8 activity raw data (signal) (HDAC8; [18]): 40240975
HDAC8 activity raw data (signal) (HDAC8; [19]): 46468325
HDAC8 activity raw data (signal) (HDAC8; [20]): 43451568
